Patent US7709002B1, “Mutated ras peptides for generation of CD8+Cytotoxic T lymphocytes” (The United States of America as represented by the …, priority 1996, dated 2010)
Where two headings read alike, the source gives them in different places. Each block holds one compound with its values, some of them ahead of it. Where no end group is shown, it is not given here.

Experiments:
[1] = test system: peptide-pulsed autologous EBV-B cells; assay type: cell-based, human
Experimental: (§1) Cytotoxic response. Cytotoxicity was examined by a conventional ^51Cr-release assay, as described (6). Briefly, target cells (i.e. T2, C1R-A2, BLCL, K562) were radiolabeled with 200 μCi of Na2[^51Cr]04 (Amersham) for 60 minutes at 37° C., followed by thorough washing to remove unincorporated isotope. Effectors and targets (1×10^4/well) were incubated in 96-well, U-bottomed plates (Costar) at various effector target (E/T) ratios in the absence and presence of peptide (+/−monoclonal antibody (MAb) directed against CD4, CD8 or HLA-A2 molecules (clone BB7.2 from ATCC)) for up to 6 hours. After incubation, supernatants were collected using a Supernatant Collection System (Skatron, Sterling, Va.) and radioactivity measured in a γ-counter (Packard Instruments, Downers Grove, Ill.). Cytotoxic activity was defined as percent specific release of ^51Cr and determined by the equation: [(experimentalcpm−spontaneouscpm)/maximumcpm−spontaneouscpm)]×100. Results were expressed as the mean±SEM of triplicate cultures. The C1R-A2 line is a BLCL transfected with the HLA-A2 gene (obtained from Dr. P. Creswell, Yale University) (Storkus et al, 1987 J. Immunol. 138:1657-1659), and K562 is an erythroleukemia cell line (ATCC, Rockville, Md.) used to measure NK activity.

human HLA-A2 = target: T1, human HLA-A2 (Homo sapiens, UniProt P04439, D140Y/D185E/D98H/E176V/E277Q/G131W/G231S/I119V/I121R/I166T/I218V/L300P/L318F/N151K/N90K/P208A/P217A/Q86G/Q94H/R138H/R169H/T345S); assay: HLA-A2 binding bioassay on T2 cells (flow cytometry); conditions: for Immunostaining of T2 cells with Isotype control MAb: no peptide = 84.0
T1 construct: The 174CEM.T2 cell line (“T2”), (transport deletion mutant); endogenous in cells; host or cells: 174CEM.T2 (T2) human cell line

[2] = test system: SW480 colon carcinoma cell line (HLA-A2+, rasVal12+); assay: 51Cr-release cytotoxicity of CTL against SW480 colon carcinoma cells; assay type: cell-based, human; conditions: IFN-γ 250 U/ml for 24 hr; no lysis without pretreatment (FIG. 10A)
Experimental: (§2) FIGS. 10A and 10B. Anti-ras Val12-specific CTL from patient 29 lyse SW480 tumor targets in the absence of exogenous peptide. FIG. 10A: Anti-ras Val12-specific CD8^+ CTL from patient 29 were assayed against the SW480 colon carcinoma cell line (HLA-A2^+, rasVal12+) in the absence of exogenous peptide, with or without IFN-γ pretreatment (250 U/ml for 24 hr) of the target cells. CD8^+ CTL reactive with the […] peptide were used as an irrelevant effector cell population. Cytotoxicity was determined by ^51Cr-release, and the results expressed at different effector/target ratios. FIG. 10B: In parallel to 10A, anti-ras or anti-MART-1-specific CTL were assayed against SW480 (±IFN-γ pretreatment) at an effector/target ratio of 10/1 in the absence or presence of exogenous peptide (5 μg/ml). […] Flow cytometric analysis of SW480 cells for expression of HLA-A2: untreated=65.4% with MFI of 29.8; IFN-γ-pretreated=99.5% with MFI of 349.6. Flow cytometric analysis of SW480 cells for expression of ICAM-1: untreated=16.0% with MFI of 30.3; IFN-γ-pretreated=98.6% with MFI of 181.9.
(§3) Cytotoxic response. Cytotoxicity was examined by a conventional ^51Cr-release assay, as described (6). […] After incubation, supernatants were collected using a Supernatant Collection System (Skatron, Sterling, Va.) and radioactivity measured in a γ-counter (Packard Instruments, Downers Grove, Ill.). Cytotoxic activity was defined as percent specific release of ^51Cr and determined by the equation: [(experimentalcpm−spontaneouscpm)/maximumcpm−spontaneouscpm)]×100. Results were expressed as the mean±SEM of triplicate cultures. […]
Studies were also carried out to determine whether such peptide-induced CD8^+ CTL could recognize a processed form of the corresponding mutant ras protein. […] In contrast to the CD4^+ analysis, which measured lymphoproliferation to soluble protein, the CD8^+ CTL analysis reflected lytic ability against SW480 cells harboring the naturally-occurring mutation in the absence of exogenously added peptide. […]

SW480 cells = assay: Flow cytometric analysis of SW480 cells for HLA-A2 and ICAM-1 after IFN-γ pretreatment; assay type: cell-based, human
Experimental: as §2
Isolation and preparation of peripheral blood mononuclear cells (PBMC). PBMC were isolated from 50 ml of heparinized whole blood by Ficoll-Hypaque density gradient centrifugation (Lymphocyte Separation Medium; Organon-Teknika, Durham, N.C.) prior to the first vaccination and four weeks after each vaccination. After isolation at each interval, PBMC were cryopreserved under liquid nitrogen in a sterile cocktail of 90% heat-inactivated, pooled human AB serum (Valley Biomedical, Winchester, Va.) and 10% dimethyl sulfoxide (DMSO) (Sigma Chemical Co., St. Louis, Mo.). Basic cellular immune responses to mitogens and antigens were first determined using freshly-thawed, unfractionated PBMC, derived pre-vaccination and post-third vaccination. For all functional assays and cell culture preparation, PBMC were suspended in a RPMI-1640 based-medium, supplemented with 15 mM HEPES buffer (pH 7.4), 2 mM L-glutamine, 0.1 mM non-essential amino acids, 1 mM sodium pyruvate, 50 μM β-mercaptoethanol, 50 μg/ml gentamicin (all from GIBCO/BRL, Gaithersburg, Md.) and 10% heat-inactivated human AB serum (Valley Biomedical). Cell surface phenotype of resting and activated lymphocyte cultures was analyzed by direct immunofluorescence. Cells were treated with the appropriate primary monoclonal antibody (MAb) conjugated to fluorescein isothiocyanate (FITC) (from Pharmingen, San Diego, Calif. or Becton Dickinson, Mountain View, Calif.), fixed with 1% paraformaldehyde and evaluated by flow cytometry using a FACScan (Becton Dickinson) for the percentage of positive cells and mean fluorescent intensity (MFI).

[3] = test system: C1R-A2 cell line as target of CD8+ CTL line of RAS patient 32; assay: 51Cr-release cytotoxicity of CD8+ CTL line of RAS patient 32 against peptide-pulsed C1R-A2 targets; assay type: cell-based, human; conditions: for % Specific Lysis: E/T 20/1, 6 hr
Description: (§4) IVS cycles for evaluation of CD8^+ T cell responses from HLA-A2+Patients. Freshly-thawed PBMC (from ras patients 32 and 33), derived pre-vaccination and post-third vaccination, were enriched in T lymphocytes by passage over nylon wool columns (Robbins Scientific, Sunnyvale, Calif.) and then depleted of CD4^+ T cells by negative selection via panning on anti-CD4 MAb-coated T25 flasks (Applied Immune Sciences, Santa Clara, Calif.). For the first IVS cycle, CD8^+ enriched lymphocytes (5×10^5/well) were cultured in 24-well plates with irradiated, autologous PBMC (5×10^6/well) as APC which had been preincubated for 3 hours with the appropriate mutant ras peptide ([…]) plus human β2-microglobulin (10 μg/ml) (Calbiochem, San Diego, Calif.). […] IL-2 (10 U/ml) was added 3 days later. After an additional 7 days, viable cells (2-5×10^5/well) were re-cultured by weekly stimulation with APC pre-pulsed with peptide/β2-microglobulin, and IL-2 added one day later. After the third or fourth IVS cycle, autologous PBMC were replaced with EBV-transformed, autologous BLCL (5×10^5/well) as APC. […] CTL activity was evaluated from cultures 5 to 6 days after Ag restimulation.
as §1

[4] = test system: T2 cell line as target of CD8+ CTL line of RAS patient 32; assay: 51Cr-release cytotoxicity of CD8+ CTL line of RAS patient 32 against peptide-pulsed T2 targets; assay type: cell-based, human; conditions: peptide 10 μg/ml, IVS cycle 7 (FIG. 5)
Experimental: FIG. 5. Cytolytic activity by CD8^+ CTL line of RAS patient 32 is peptide-specific. The CD8^+ CTL line of RAS patient 32 (see FIG. 3) was assayed against the T2 cell line as a target, incubated with and without different ras peptides (10 μg/ml), as shown. In parallel, the extent of NK activity was evaluated against K562 cells. Cytotoxicity was determined by ^51Cr-release, and the results expressed at different E/T ratios following IVS cycle 7. Similar results were observed using the second, independently-derived CD8^+ CTL line as described in Table 6.
as §4
as §1, with “The C1R-A2 line is a BLCL transfected with the HLA-A2 gene (obtained from Dr. P. Creswell, Yale University) (Storkus et al, 1987 J. Immunol. 138:1657-1659), and K562 is an erythroleukemia cell line (ATCC, Rockville, Md.) used to measure NK activity.” left out

[5] = test system: C1R-A2 targets / autologous EBV-B cells as targets of CD8+ CTL line of patient 29; assay: 51Cr-release cytotoxicity of CD8+ CTL line of patient 29 against C1R-A2 or autologous EBV-B targets; assay type: cell-based, human; conditions: autologous EBV-B targets, IVS cycle 11, effector/target ratio 10/1 (FIG. 9B)
Experimental: FIGS. 9A and 9B. Production of a peptide-specific CD8^+ T cell line from post-vaccinated lymphocytes of patient 29. FIG. 9A: A CD8^+ CTL line was established from post-vaccinated PBMC of patient 29 and assayed for peptide specificity against C1R-A2 targets. Cytotoxicity was determined by ^51Cr-release, and the results expressed at different effector/target ratios following IVS cycle 7. FIG. 9B: Using this CD8^+ CTL line, the requirement for HLA-A2 in peptide presentation (by autologous EBV-B cells as targets) was determined in blocking experiments using MAb (clone BB7.2; ascites=1:30 dilution) directed against that molecule (or using an isotype-matched MAb). […] CD4 and CD8 MAbs were as described for FIGS. 8A and 8b. Control lysis in the absence of peptide or in the presence of ras5-14(Gly12) was <3%.
as §3

[6] = peptide 50 μg/ml + β2-microglobulin 3 μg/ml, overnight 37° C., serum-free
[7] = Post-Immune CD8+ culture, IVS cycle 6, 10-mer peptide 10 μg/ml
[8] = Post-Immune CD8+ culture, IVS cycle 7, 10-mer peptide 10 μg/ml
[9] = Post-Immune CD8+ culture, IVS cycle 8, 10-mer peptide 10 μg/ml
[10] = Post-Immune CD8+ culture, IVS cycle 9, 10-mer peptide 10 μg/ml
[11] = Pre-Immune CD8+ culture, IVS cycle 6, 10-mer peptide 10 μg/ml
[12] = Pre-Immune CD8+ culture, IVS cycle 7, 10-mer peptide 10 μg/ml

Compound: CC(C)C[C@H](NC(=O)[C@@H](N)CCCCN)C(=O)N[C@H](C(=O)N[C@H](C(=O)N[C@H](C(=O)NCC(=O)N[C@@H](C)C(=O)N[C@@H](CS)C(=O)NCC(=O)N[C@H](C(=O)NCC(=O)N[C@@H](CCCCN)C(=O)N[C@@H](CO)C(=O)O)C(C)C)C(C)C)C(C)C)C(C)C [ras5-17(Cys12)]
- Specific cytotoxic response of CD4+ T cell line ([1]; CD4+ T cell line of patient 43): no specific cytotoxic response was detected

- Immunostaining of T2 cells with Isotype control MAb (human HLA-A2; [6]): 48.4 MFI
- Immunostaining of T2 cells with MAb against HLA-A2 (human HLA-A2; peptide 50 μg/ml + β2-microglobulin 3 μg/ml, overnight 37° C., serum-free, no peptide = 137.9): 679.5 MFI
- Immunostaining of T2 cells with Pan Class I MAb (W6/32) (human HLA-A2; peptide 50 μg/ml + β2-microglobulin 3 μg/ml, overnight 37° C., serum-free, no peptide = 230.4): 991.2 MFI
Compound: CEA571-579: 9 amino acid peptide, HLA-A2-restricted CEA-specific CD8+ CTL epitope, positive control for HLA-A2 binding (CGIQNSVSA; UniProt P06731 571-579, looked up, fragment)

Compound: IFN-γ: interferon gamma used to pretreat SW480 target cells
- Lysis of SW480 by anti-rasVal12 CTL after pretreatment of targets, no exogenous peptide [2]: demonstrable cytotoxicity was observed at multiple effector/target ratios
- SW480 cells positive for HLA-A2 (SW480 cells; IFN-γ-pretreated (250 U/ml, 24 hr), untreated 65.4%): 99.5%
- SW480 cells positive for ICAM-1 (SW480 cells; IFN-γ-pretreated, untreated 16.0%): 98.6%
- HLA-A2 expression on SW480 (SW480 cells; IFN-γ-pretreated, untreated 29.8): 349.6 MFI
- ICAM-1 expression on SW480 (SW480 cells; IFN-γ-pretreated, untreated 30.3): 181.9 MFI

Compound: ras5-14(Gly12): wild-type ras 10-mer peptide positions 5-14 with Gly at position 12 (KLVVVGAGGV)
- Control lysis ([3]; IVS cycle 16, effector/target ratio 10/1 (FIG. 7)): < 3%
- % Specific Lysis [3, 7]: 8 ± 0%
- % Specific Lysis [3, 8]: 8 ± 1%
- % Specific Lysis [3, 9]: 10 ± 1%
- % Specific Lysis [3, 10]: 21 ± 2%
- % Specific Lysis [3, 11]: 10 ± 1%
- % Specific Lysis [3, 12]: 0%
- Sensitization of T2 targets for lysis (in words) [4]: failed to stimulate lysis
- Control lysis [5]: < 3%
- Immunostaining of T2 cells with Isotype control MAb (human HLA-A2; [6]): 41.3 MFI

Compound: Lys-Leu-Val-Val-Val-Gly-Ala-Asp-Gly-Val [ras5-14(Asp12)]
- % Specific Lysis [3, 7]: 24 ± 2%
- % Specific Lysis [3, 8]: 26 ± 2%
- % Specific Lysis [3, 9]: 67 ± 2%
- % Specific Lysis [3, 10]: 68 ± 4%
- % Specific Lysis [3, 11]: 14 ± 0%
- % Specific Lysis [3, 12]: 0%
- Sensitization of T2 targets for lysis (in words) [4]: sensitized the T2 cell line for lysis

Compound: CC(C)C[C@H](NC(=O)[C@@H](N)CCCCN)C(=O)N[C@H](C(=O)N[C@H](C(=O)N[C@H](C(=O)NCC(=O)N[C@@H](C)C(=O)N[C@H](C(=O)NCC(=O)N[C@H](C(=O)NCC(=O)N[C@@H](CCCCN)C(=O)N[C@@H](CO)C(=O)O)C(C)C)C(C)C)C(C)C)C(C)C)C(C)C [ras5-17(Val12)]
- Specific cytotoxic response of CD4+ T cell line ([1]; CD4+ T cell line of patient 29): did not display specific cytotoxicity

Compound: YLVVVGADGV [Tyr variant]
- Shift in dose-response of target sensitization for lysis vs native peptide, based on half-maximal activity ([3]; anti-ras5-14(Asp12) CTL line, E/T 10/1 (FIG. 11)): three-fold
- Binding activity to HLA-A2 on T2 cells relative to native ras5-14(Asp12) sequence (human HLA-A2; less dependency for exogenous β2-macroglobulin): higher binding activity than did the native peptide sequence
